Test results as given in PMC3348135, “Identification of New Agonists and Antagonists of the Insect Odorant Receptor Co-Receptor Subunit” (PLoS ONE, 2012).

Assay: Solubility in recording solution (observation)
Format: physicochemical
Details: aqueous recording solution, higher concentrations (OLC2: above 100 µM)
Protocol: Odorant and Orco ligand induced currents were recorded under two-electrode voltage clamp in Xenopus laevis oocytes expressing ORs, using an automated parallel electrophysiology system (OpusExpress 6000A; Molecular Devices). Oocytes were perfused with ND96 (in mM: 96 NaCl, 2 KCl, 1 CaCl2, 1 MgCl2, 5 HEPES, pH 7.5). Odorant stock solutions (0.5 or 1 M) and Orco ligand stock solutions (100 mM) were prepared in DMSO and diluted in ND96. Unless otherwise noted, applications were for 60 sec at a flow rate of 1.0 ml/min, with extensive washing in ND96 (9 or 20 min at 4.6 ml/min) between applications. Micropipettes were filled with 3 M KCl and had resistances of 0.2−2.0 MΩ. The holding potential was −70 mV. Current responses, filtered (4-pole, Bessel, low pass) at 20 Hz (−3 db) and sampled at 100 Hz, were captured and stored using OpusXpress 1.1 software (Molecular Devices).

Which Solubility does the source give for `CCc1ccc(NC(=O)CSc2nnc(-c3ccccn3)n2CC)cc1` [OLC2] here?
Its Solubility is “poor solubility”.
